The record followed here is patent publication US4232160A, “Isoquinoline propionamides exhibiting analgesic properties” (Miles Laboratories, Inc., priority 1978, dated 1980).

The subject of the test is male CD-1 mice. In words: acetic acid induced writhing test (analgesic activity, subcutaneous). The class given is in vivo. The settings on record: Mus musculus, sc, read-out: ED50 (dose required to reduce the number of writhes by 50%). The protocol:
The analgesic activity of the isoquinoline propionanilides prepared as described in Examples I-XIII was determined by the acetic acid induced writhing test described by Whittle et al., Brit. J. Pharmacol, 22 296 (1964). In this test at least three groups of five male CD-1 mice each were given subcutaneous doses of the test drug dissolved in either distilled water or distilled water acidified with HCl depending on solubility of the compound. In all cases 0.4 ml. of 0.5% v/v acetic acid in distilled water was administered intraperitoneal 15 minutes post drug. The number of writhes in a 20 minute interval beginning 5 minutes after the acetic acid injection were determined and compared with the number of writhes in control groups which had received only acetic acid. In two cases the ITME writhing test protocol was used which is the same as that outlined above except that the number of writhes are determined for 10 minutes after the administration of acetic acid.
Percent inhibition of writhing was calculated as: [formula]
The ED50 does, ie. the dose required to reduce the number of writhes by 50%, was determined graphically from a plot of % inhibition as a probit versus log dose. Confidence limits of 95% were calculated on the basis of those results falling in the range 16-84% inhibition. See Litchfield, J. T. and Wilcoxon, F., J Pharmacol. Exp. Ther., 96 99-113, (1949).

Where [1] appears, read: 0.5% acetic acid i.p. 15 min post drug, writhes counted in 20 min interval beginning 5 min after acetic acid.
Setting [2] is: 10 min, *According to IMTE writhing test protocol: writhes determined for 10 minutes after acetic acid.

The structures appear in SMILES notation. Structures can show the parent of a compound that is named as a salt. Where two headings read alike, the source gives them in different places.

As a reminder, the ED50 is the dose that gives a 50% effect, or the effect in half of the subjects. As for `CCC(=O)N(CC1c2ccccc2CCN1CC1CC1)c1ccccc1.Cl` (stereo not shown) [TR-3207, N-[(1,2,3,4-Tetrahydro-2-cyclopropylmethyl-1-isoquinolyl)methyl]propionanilide hydrochloride], the ED50 under setting [1] is 7.45 mg/kg.

Take `CCC(=O)N(CC1c2ccccc2CCN1CCc1ccccc1)c1ccccc1.Cl` (stereo not shown) [TR-3280, N-[(1,2,3,4-Tetrahydro-2-phenethyl-1-isoquinolyl)methyl]propionanilide hydrochloride]: under setting [2], the median effective dose (ED50) is 10 mg/kg.

Take `CCC(=O)N(CC1c2ccccc2CCN1C)c1ccccc1.Cl` (stereo not shown) [TR-3284, N-[(1,2,3,4-Tetrahydro-2-methyl-1-isoquinolyl)methyl]propionanilide hydrochloride]: under setting [1], the ED50 stood at 7.1 mg/kg.

`CCCCCCN1CCc2ccccc2C1CN(C(=O)CC)c1ccccc1.O.O=C(O)C(=O)O` (stereo not shown) [TR-3309, N-[(1,2,3,4-Tetrahydro-2-n-hexyl-1-isoquinolyl)methyl]propionanilide oxalate hydrate]: the 50% effective dose (ED50) under setting [1] was determined as 2.08 mg/kg.

For the compound `CCCCCN1CCc2ccccc2C1CN(C(=O)CC)c1ccccc1.Cl` (stereo not shown) [TR-3316, N-[(1,2,3,4-Tetrahydro-2-n-pentyl-1-isoquinolyl)methyl]propionanilide hydrochloride], under setting [1], the ED50 was determined as 1.76 mg/kg.

Turning to `CCC(=O)N(CC1c2ccccc2CCN1CCC(C)C)c1ccccc1.Cl` (stereo not shown) [TR-3317, N-[(1,2,3,4-Tetrahydro-2-i-pentyl-1-isoquinolyl)methyl]propionanilide hydrochloride], under setting [2], the ED50 came out at 16.5 mg/kg.

On to `CCC(=O)N(CC1c2ccccc2CCN1C)c1ccc(Cl)cc1.Cl` (stereo not shown) [TR-3354, N-[(1,2,3,4-Tetrahydro-2-methyl-1-isoquinolyl)methyl]N-(4-chlorophenyl)propionamide hydrochloride], for which the 50% effective dose (ED50) under setting [1] worked out at 0.5 mg/kg.

As to `CCC(=O)N(CC1c2ccccc2CCN1C)c1ccc(C)cc1.Cl` (stereo not shown) [TR-3355, N-[(1,2,3,4-Tetrahydro-2-methyl-1-isoquinolyl)methyl]-N-(4-methylphenyl)propionamide hydrochloride], under setting [1], the ED50 is 0.53 mg/kg.

As for `CCC(=O)N(CC1c2ccccc2CCN1Cc1ccccc1)c1ccccc1.Cl` (stereo not shown) [TR-3359, N-[(1,2,3,4-Tetrahydro-2-benzyl-1-isoquinolyl)methyl]propionanilide hydrochloride], the ED50 under setting [1] worked out at 15 mg/kg.

For `CCC(=O)N(Cc1ccccc1)CC1c2ccccc2CCN1Cc1ccccc1` (stereo not shown) [TR-3388, N-[(1,2,3,4-Tetrahydro-2-benzyl-1-isoquinolyl)methyl]-N-benzylpropionamideoxalate], the ED50 under setting [1] was determined as 33 mg/kg.

Take `CCC(=O)N(Cc1ccccc1)CC1c2ccccc2CCN1C` (stereo not shown) [TR-3389, N-[(1,2,3,4-Tetrahydro-2-methyl-1-isoquinolyl)methyl]-N-benzylpropionamideoxalate]: under setting [1], the median effective dose (ED50) is 23 mg/kg.

Consider `CCC(=O)N(CC1c2cc(OC)c(OC)cc2CCN1C)c1ccccc1` (stereo not shown) [TR-3426, N-[(6,7-Dimethoxy-2-methyl-1,2,3,4-tetrahydro-1-isoquinolyl)methyl]propionanilide], for which, under setting [1], the 50% effective dose (ED50) was found to be 4.55 mg/kg.

Consider `CCC(=O)N(CC1c2ccccc2CCN1C)c1ccccn1` (stereo not shown) [TR-3461, N-[(2-Methyl-1,2,3,4-tetrahydro-1-isoquinolyl)methyl]-N-(2-pyridyl)priopionamide hydrochloride], for which, under setting [1], the 50% effective dose (ED50) worked out at 10.7 mg/kg.
